# Measured values taken from PMC7347136 (PLoS ONE, 2020).
# Read-outs that look alike come from different tables or passages of the source.
# Tests used:
# Assay in all cases: Resazurin reduction cell viability assay
# HL60 = assay type: cell-based; conditions: Homo sapiens
# Experimental: (§1) Solid tumor cell lines were seeded in 100 μl medium into 96-well plates at an appropriate cell number determined by a cell dilution assay (Cal51–2000 cells/well; Colo205, MCF10A and 184A1–3000 cells/well and MDA-MB-468, HCC1954–4000 cells/well). AML suspension cells were seeded in 96-well plates at approximately 3000 cells per well. Cells were incubated overnight at 37°C, 5% CO2. The following day, 100 μl fresh medium containing increasing concentrations of appropriate compound was added and the cells were incubated for up to 72 h at 37°C, 5% CO2. For pulse treatment of solid (adherent) tumor cell lines, medium was aspirated and replaced with fresh drug-free medium. For pulse treatment of suspension lines, plates were centrifuged at 478 xg for 5 min at the end of the incubation period with compound, medium containing compound was carefully aspirated and replaced with fresh compound-free medium. A total of 72 h after the start of treatment, 20 μl of a 10X stock of resazurin sodium salt (Sigma-Aldrich, Dorset, UK) prepared in medium was added to the cells and incubated for up to 3 h. […] was measured on the Wallac Victor plate reader (Cambridge, UK) at 544–595 nm. IC50/70/90 calculations were determined in XLFit.
# Kasumi-1 = assay type: cell-based; conditions: Homo sapiens
# Experimental: as §1
# Cal51 = assay type: cell-based; conditions: Homo sapiens
# Experimental: as §1
# ML-2 = assay type: cell-based; conditions: Homo sapiens
# Experimental: as §1
# EOL-1 = assay type: cell-based; conditions: Homo sapiens
# Experimental: as §1
# MDA-MB-468 = assay type: cell-based; conditions: Homo sapiens
# Experimental: as §1
# Nomo-1 = assay type: cell-based; conditions: Homo sapiens
# Experimental: as §1
# HCC1954 = assay type: cell-based; conditions: Homo sapiens
# Experimental: as §1
# H23 = assay type: cell-based, human; conditions: 6 h pulse
# [1] = 72 h continuous, read-out: 72 h continuous IC50 ± SD
# [2] = read-out: 6 h pulse IC50 ± SD, 6 h pulse then 66 h release
smiles,measurement,setting,value
"CC[C@H](Nc1nc(NCc2cnc(C)cc2C)c2ncn(C(C)C)c2n1)[C@@H](C)O [Fadraciclib, 2-pentanol, 3-[[6-[[(4,6-dimethyl-3-pyridinyl)methyl]amino]-9-(1-methylethyl)-9Hpurin-2-yl]amino]-, (2R,3S)]",IC90,"HL60; HL-60, 6 h pulse then 66 h release",1.6 µM
same,IC50,"HL60; HL-60, 72 h continuous, read-out: 72 h continuous IC50 ± SD",0.44 ± 0.07 µM
same,IC50,"HL60; HL-60, read-out: 6 h pulse IC50 ± SD, 6 h pulse then 66 h release",0.79 ± 0.14 µM
same,IC90,Kasumi-1; 6 h pulse then 66 h release,0.57 µM
same,IC50,Kasumi-1; [1],0.23 ± 0.04 µM
same,IC50,Kasumi-1; [2],0.32 ± 0.05 µM
same,IC50,"Cal51; CAL-51, read-out: 8 h pulse IC50 ± SD, Cal51 (TNBC), 8 h pulse, read at 72 h",0.68 ± 0.2 µM
same,IC50,"Cal51; CAL-51, Cal51, continuous 72 h, read-out: continuous IC50 ± SD",0.23 ± 0.04 µM
same,IC90,ML-2; 6 h pulse then 66 h release,0.59 µM
same,IC50,ML-2; [1],0.19 ± 0.05 µM
same,IC50,ML-2; [2],0.33 ± 0.12 µM
same,IC90,"EOL-1; EOL1, 6 h pulse then 66 h release",0.56 µM
same,IC50,"EOL-1; EOL1, 72 h continuous, read-out: 72 h continuous IC50 ± SD",0.37 ± 0.05 µM
same,IC50,"EOL-1; EOL1, read-out: 6 h pulse IC50 ± SD, 6 h pulse then 66 h release",0.35 ± 0.05 µM
same,IC50,"MDA-MB-468; read-out: 8 h pulse IC50 ± SD, MDA-MB-468 (TNBC), 8 h pulse, read at 72 h",0.99 ± 0.34 µM
same,IC50,"MDA-MB-468; MDA-MB-468, continuous 72 h, read-out: continuous IC50 ± SD",0.38 ± 0.17 µM
same,IC90,Nomo-1; 6 h pulse then 66 h release,1.8 µM
same,IC50,Nomo-1; [1],0.29 ± 0.05 µM
same,IC50,Nomo-1; [2],0.66 ± 0.11 µM
same,IC50,"HCC1954; read-out: 8 h pulse IC50 ± SD, HCC1954 (HER2 amplified), 8 h pulse, read at 72 h",0.48 ± 0.05 µM
same,IC50,"HCC1954; HCC1954, continuous 72 h, read-out: continuous IC50 ± SD",0.4 ± 0.03 µM
same,"IC50, short pulse",H23,submicromolar
